Reference: patent US20030219712A1, “Addition of glycolysis inhibitor to a pathogen reduction and storage solution” (priority 2002, published 2003)

Key:
Type in all cases: cell-based
[1] = tested on: pathogen reduced platelets; test: Glucose consumption of pathogen reduced platelets over time; conditions: 10 mM 2-deoxy-D-glucose; riboflavin, 7 J/cm^2 320 nm light; vs platelets containing no 2-deoxy-D-glucose (FIG. 2)
Source text: (§1) The following figures graph the quality of pathogen reduced platelets over a five day storage period. Platelets were separated from whole blood and collected using a blood collection device such as the COBE Spectra™ or TRIMA® apheresis systems available from Gambro BCT Inc., Lakewood, Colo., USA. However, it should be noted that any device known in the art for separating blood into components may be used to collect platelets without departing from the spirit and scope of the present invention.
(§2) Collected platelets were suspended in a volume of 278 mL of fluid containing […] riboflavin and either with or without a glycolytic inhibitor. 2-deoxy-D-glucose is one example of a glycolytic inhibitor which may be used in the present invention. The platelets were irradiated in a Sengewald bag (available from Sengewald Verpackungen GmbH & Co. KG) (however any bag known in the art may be used) at 7 J/cm^2 with a 320 nm broad band eximer light.

[2] = tested on: pathogen treated platelets; test: GMP-140 expression on the surface of pathogen treated platelets (platelet activation) over five day storage; conditions: solutions containing 2-deoxy-D-glucose, vs solutions without glycolytic inhibitors (FIG. 4)
Source text: as §1, §2
FIG. 4 is a graph showing GMP-140 expression on the surface of pathogen treated platelets over a five day storage period. GMP-140 is a marker which appears on the surface of platelets which are activated. When transfused into a recipient, platelets which are activated during storage have a higher percentage of being quickly removed from the recipient's circulatory system than non-activated platelets.

[3] = tested on: pathogen reduced platelets; test: Lactate production by pathogen reduced platelets over five day storage; conditions: 10 mM 2-deoxy-D-glucose; five days in storage; riboflavin, 7 J/cm^2 320 nm light; vs platelets without 2-deoxy-D-glucose (FIG. 1)
Source text: as §1, §2

[4] = tested on: pathogen reduced platelets; test: pH over time of a solution of pathogen reduced platelets; conditions: 10 mM 2-deoxy-D-glucose; five day storage; platelets without it show rapid drop in pH (FIG. 3)
Source text: as §1, §2
As shown, 10 mM 2-deoxy-D-glucose appears to maintain the pH of the platelets at approximately pH 7.40. Platelets without 2-deoxy-D-glucose experience a rapid drop in pH. Such results are expected because lactic acid is not produced at high rates if the glycolysis pathway is inhibited, and consequently, the pH of the solution remains at a relatively constant level.

O=CC[C@@H](O)[C@H](O)[C@H](O)CO [2-deoxy-D-glucose]
glucose consumption [1]: slower rate | percentage of GMP-140 expression [2]: lower percentage | production of lactic acid [3]: marked decrease | pH of the platelets maintained during storage [4]: ~7.40
